Data on 25 compounds can be found in ChEMBL document CHEMBL1909046, “DrugMatrix in vitro pharmacology data”.

The target in one data set is Nitric oxide synthase 1 (Rattus norvegicus, UniProt P29476). It counts as tissue-based, Cerebellum. Note: in other assays of this panel Not Active means under 50% inhibition at 10 µM.
Another data set concerns the target T1, Substance-K receptor (Homo sapiens, UniProt P21452). Note: in other assays of this panel Not Active means under 50% inhibition at 10 µM.
T1 sequence (P21452 whole entry): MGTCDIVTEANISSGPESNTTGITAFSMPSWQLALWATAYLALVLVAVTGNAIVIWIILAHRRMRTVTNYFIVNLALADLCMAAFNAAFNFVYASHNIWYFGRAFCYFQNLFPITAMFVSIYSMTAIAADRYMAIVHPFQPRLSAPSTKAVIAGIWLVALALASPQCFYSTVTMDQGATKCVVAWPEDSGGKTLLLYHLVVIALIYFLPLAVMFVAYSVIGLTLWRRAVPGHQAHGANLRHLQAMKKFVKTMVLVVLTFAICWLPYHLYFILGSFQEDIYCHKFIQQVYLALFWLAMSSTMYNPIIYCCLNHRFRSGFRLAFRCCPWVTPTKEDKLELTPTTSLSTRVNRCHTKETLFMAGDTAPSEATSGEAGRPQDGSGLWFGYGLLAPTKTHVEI
In kind it is cell membranes, CHO, Membrane.

The target in another data set is Cytochrome P450 2D6 (Homo sapiens, UniProt P10635). As to conditions: bti-tn-5b1-4. Note: in other assays of this panel Not Active means under 50% inhibition at 10 µM.
Sequence of Cytochrome P450 2D6 (P10635 whole entry): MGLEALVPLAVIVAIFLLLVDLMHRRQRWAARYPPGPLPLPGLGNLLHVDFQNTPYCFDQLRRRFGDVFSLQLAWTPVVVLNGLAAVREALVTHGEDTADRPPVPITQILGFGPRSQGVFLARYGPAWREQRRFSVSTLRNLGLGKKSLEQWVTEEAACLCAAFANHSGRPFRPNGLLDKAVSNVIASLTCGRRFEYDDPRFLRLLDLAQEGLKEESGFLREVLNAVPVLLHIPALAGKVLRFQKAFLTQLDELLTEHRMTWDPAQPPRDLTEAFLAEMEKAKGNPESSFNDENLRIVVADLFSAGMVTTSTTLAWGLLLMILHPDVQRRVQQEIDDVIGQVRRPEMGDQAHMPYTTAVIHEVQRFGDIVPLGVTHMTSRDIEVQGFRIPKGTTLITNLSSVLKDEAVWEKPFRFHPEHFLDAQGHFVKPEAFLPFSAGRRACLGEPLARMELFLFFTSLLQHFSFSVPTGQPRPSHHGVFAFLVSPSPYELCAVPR
Data set [1] has as its target T2, Amine oxidase [flavin-containing] A (Homo sapiens, UniProt P21397).
T2 sequence (P21397 whole entry): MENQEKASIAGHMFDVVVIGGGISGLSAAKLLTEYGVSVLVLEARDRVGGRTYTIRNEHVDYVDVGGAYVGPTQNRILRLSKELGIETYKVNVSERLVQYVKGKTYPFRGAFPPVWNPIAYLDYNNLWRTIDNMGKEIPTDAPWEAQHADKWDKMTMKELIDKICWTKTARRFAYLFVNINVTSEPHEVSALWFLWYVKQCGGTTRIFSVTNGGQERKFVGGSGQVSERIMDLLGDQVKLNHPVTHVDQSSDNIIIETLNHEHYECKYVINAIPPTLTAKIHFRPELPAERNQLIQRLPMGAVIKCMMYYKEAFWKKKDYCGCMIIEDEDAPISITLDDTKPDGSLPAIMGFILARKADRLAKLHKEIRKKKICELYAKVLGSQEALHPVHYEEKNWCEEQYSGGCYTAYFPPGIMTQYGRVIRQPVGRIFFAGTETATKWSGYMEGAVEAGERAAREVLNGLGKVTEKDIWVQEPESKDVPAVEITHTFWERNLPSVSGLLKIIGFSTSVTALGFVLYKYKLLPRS
Put plainly: DRUGMATRIX: Monoamine Oxidase MAO-A enzyme inhibition (substrate: Kynuramine). On the set-up: species or system BTI-TN-5B1-4. The conditions noted are these: Not Active = under 50% inhibition at 10 µM.

For another data set, the target named is Adenosine receptor A2a (Homo sapiens, UniProt P29274). Put plainly: DRUGMATRIX: Adenosine A2A radioligand binding (ligand: […]). As to conditions: Not Active = under 50% inhibition at 10 µM. In kind it is cell membranes, HEK293, Membrane.
Sequence of Adenosine receptor A2a (P29274 whole entry): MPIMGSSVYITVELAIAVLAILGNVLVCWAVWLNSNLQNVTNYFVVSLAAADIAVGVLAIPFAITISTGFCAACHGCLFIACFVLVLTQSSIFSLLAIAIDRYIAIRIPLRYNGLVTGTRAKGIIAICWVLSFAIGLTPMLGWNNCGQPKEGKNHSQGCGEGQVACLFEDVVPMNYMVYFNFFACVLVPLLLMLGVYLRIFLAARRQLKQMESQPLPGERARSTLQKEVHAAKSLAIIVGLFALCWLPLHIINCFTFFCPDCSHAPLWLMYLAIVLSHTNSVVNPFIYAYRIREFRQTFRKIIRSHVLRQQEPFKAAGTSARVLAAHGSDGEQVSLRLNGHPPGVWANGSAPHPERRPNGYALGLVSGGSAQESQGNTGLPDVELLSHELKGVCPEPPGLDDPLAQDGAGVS
Data set [2] addresses Mitogen-activated protein kinase 14 (Homo sapiens, UniProt Q16539). On the set-up: species or system Escherichia coli.

Where a SMILES comes first, the peptide text is derived from it. Bridges are numbered along the chain shown (N, C = ends). [ ]: non-standard residue; d: D form. The star is where a group is joined. Threoninol(2S,3R) = C[C@@H](O)[C@H](CO)N*

Sequence of Mitogen-activated protein kinase 14 (Q16539 whole entry): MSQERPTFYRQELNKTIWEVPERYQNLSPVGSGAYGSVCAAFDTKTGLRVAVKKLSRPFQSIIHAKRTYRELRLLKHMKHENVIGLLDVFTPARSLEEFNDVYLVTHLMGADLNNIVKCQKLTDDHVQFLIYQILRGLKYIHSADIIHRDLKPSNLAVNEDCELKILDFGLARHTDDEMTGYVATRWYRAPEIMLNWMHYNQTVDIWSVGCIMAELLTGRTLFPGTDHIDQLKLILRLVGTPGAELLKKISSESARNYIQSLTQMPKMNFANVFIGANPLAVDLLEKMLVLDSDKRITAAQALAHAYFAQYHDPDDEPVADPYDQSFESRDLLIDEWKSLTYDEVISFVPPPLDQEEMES
Sequence of Nitric oxide synthase 1 (P29476 whole entry): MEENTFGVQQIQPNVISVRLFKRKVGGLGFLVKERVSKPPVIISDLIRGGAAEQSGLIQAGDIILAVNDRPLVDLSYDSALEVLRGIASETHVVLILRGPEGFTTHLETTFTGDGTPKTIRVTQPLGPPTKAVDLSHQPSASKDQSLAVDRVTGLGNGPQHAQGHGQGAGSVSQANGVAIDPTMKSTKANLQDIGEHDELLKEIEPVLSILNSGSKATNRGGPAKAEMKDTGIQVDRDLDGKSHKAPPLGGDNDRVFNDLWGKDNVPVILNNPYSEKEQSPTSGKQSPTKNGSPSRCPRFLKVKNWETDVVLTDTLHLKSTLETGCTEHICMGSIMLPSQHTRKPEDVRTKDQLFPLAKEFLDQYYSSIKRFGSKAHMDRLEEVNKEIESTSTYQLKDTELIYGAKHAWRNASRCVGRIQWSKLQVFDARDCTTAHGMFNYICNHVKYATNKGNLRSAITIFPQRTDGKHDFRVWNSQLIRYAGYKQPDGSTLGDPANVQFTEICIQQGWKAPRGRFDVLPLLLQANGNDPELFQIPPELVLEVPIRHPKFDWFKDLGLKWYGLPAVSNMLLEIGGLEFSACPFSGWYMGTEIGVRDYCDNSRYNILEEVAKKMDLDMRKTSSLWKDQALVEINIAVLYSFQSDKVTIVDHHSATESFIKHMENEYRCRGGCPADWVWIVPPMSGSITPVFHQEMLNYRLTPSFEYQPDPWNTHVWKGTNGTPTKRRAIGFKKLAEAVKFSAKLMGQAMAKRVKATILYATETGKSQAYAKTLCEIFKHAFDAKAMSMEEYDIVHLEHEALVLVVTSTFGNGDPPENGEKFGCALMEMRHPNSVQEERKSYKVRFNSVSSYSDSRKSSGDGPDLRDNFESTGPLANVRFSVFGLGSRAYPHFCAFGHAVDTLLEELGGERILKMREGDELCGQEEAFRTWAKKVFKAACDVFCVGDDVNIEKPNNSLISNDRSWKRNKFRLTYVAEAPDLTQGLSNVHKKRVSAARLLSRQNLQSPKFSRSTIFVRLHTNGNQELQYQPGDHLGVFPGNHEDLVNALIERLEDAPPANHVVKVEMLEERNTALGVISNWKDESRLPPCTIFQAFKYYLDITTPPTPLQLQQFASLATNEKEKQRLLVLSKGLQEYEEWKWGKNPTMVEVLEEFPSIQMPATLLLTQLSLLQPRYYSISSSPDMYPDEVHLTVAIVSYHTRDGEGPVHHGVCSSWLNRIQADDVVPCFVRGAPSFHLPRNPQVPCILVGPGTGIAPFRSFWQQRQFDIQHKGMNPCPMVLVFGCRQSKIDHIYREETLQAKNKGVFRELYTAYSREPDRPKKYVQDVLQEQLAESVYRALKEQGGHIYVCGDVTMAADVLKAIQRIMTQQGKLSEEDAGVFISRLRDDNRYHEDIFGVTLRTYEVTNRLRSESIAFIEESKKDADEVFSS

For the compound `COc1ccccc1C(=O)N1CCC(Cc2ccccc2)CC1`, the IC50 entry (on Nitric oxide synthase 1; on Substance-K receptor (cho); against Cytochrome P450 2D6; in data set [1] (bti-tn-5b1-4); on Adenosine receptor A2a (hek293)) was “Not Active” throughout. Besides, on Cytochrome P450 2D6, the Ki result was “Not Active”.
As for `Cc1ccccc1C(=O)N1CCC(Cc2ccccc2)CC1`, the IC50 result at Nitric oxide synthase 1 was “Not Active”; in data set [2] (read-out: IC50) it was 329 nM; against Substance-K receptor (cho), “Not Active”; against Cytochrome P450 2D6 it was “Not Active”; in data set [1] (bti-tn-5b1-4), “Not Active”; on Adenosine receptor A2a (hek293) it was “Not Active”. Also, the Ki result on Cytochrome P450 2D6 is “Not Active”.
For `O=C1CC[C@H](N2C(=O)c3ccccc3C2=O)C(=O)N1`, the IC50 result (against Nitric oxide synthase 1; in data set [2]; against Substance-K receptor (cho); at Cytochrome P450 2D6; in data set [1] (bti-tn-5b1-4); at Adenosine receptor A2a (hek293)) was “Not Active” in each case. For the same compound, on Cytochrome P450 2D6, the Ki entry is given as “Not Active”.
For `N=C(Nc1ccccc1)Nc1ccccc1`, the IC50 result (at Nitric oxide synthase 1; in data set [2]; against Substance-K receptor (cho); in data set [1] (bti-tn-5b1-4); at Adenosine receptor A2a (hek293)) was “Not Active” throughout.
For the compound `C[C@@H](O)[C@H](CO)NC(=O)[C@@H]1CSSC[C@H](NC(=O)[C@H](N)Cc2ccccc2)C(=O)N[C@@H](Cc2ccccc2)C(=O)N[C@H](Cc2c[nH]c3ccccc23)C(=O)N[C@@H](CCCCN)C(=O)N[C@@H]([C@@H](C)O)C(=O)N1` (H-[dF]CF[dW]KTC-{Threoninol(2S,3R)}; disulfide 2-7), the IC50 result (against Nitric oxide synthase 1; in data set [2]; at Substance-K receptor (cho); against Cytochrome P450 2D6; in data set [1] (bti-tn-5b1-4); at Adenosine receptor A2a (hek293)) was “Not Active” in each case. The inhibition constant Ki entry at Cytochrome P450 2D6 is reported as “Not Active”.
For `S=C=Nc1cccc2ccccc12` [1-NAPHTHYLISOTHIOCYANATE], the 50% inhibitory concentration (IC50) result is “Not Active” on Nitric oxide synthase 1; “Not Active” in data set [2]; “Not Active” at Substance-K receptor (cho); “Not Active” at Cytochrome P450 2D6; 22400 nM in data set [1] (read-out: IC50); “Not Active” at Adenosine receptor A2a (hek293). Moreover, the inhibitory constant (Ki) entry at Cytochrome P450 2D6 is reported as “Not Active”.
Take `C[C@](O)(CS(=O)(=O)c1ccc(F)cc1)C(=O)Nc1ccc(C#N)c(C(F)(F)F)c1` [(R)-BICALUTAMIDE]: the IC50 result (on Nitric oxide synthase 1; in data set [2]; on Substance-K receptor (cho); at Cytochrome P450 2D6; in data set [1] (bti-tn-5b1-4); on Adenosine receptor A2a (hek293)) was “Not Active” each time. Besides, on Cytochrome P450 2D6, the Ki result is recorded as “Not Active”.
On to `CCCC(=O)Nc1ccc(OCC(O)CNC(C)C)c(C(C)=O)c1` (stereo unspecified) [ACEBUTOLOL], for which the half-inhibitory concentration (IC50) entry (at Nitric oxide synthase 1; in data set [2]; against Substance-K receptor (cho); at Cytochrome P450 2D6; in data set [1] (bti-tn-5b1-4); on Adenosine receptor A2a (hek293)) was “Not Active” each time. Besides, the Ki entry at Cytochrome P450 2D6 was “Not Active”.
Regarding `CC(=O)Nc1ccc(O)cc1` [ACETAMINOPHEN], the IC50 result (against Nitric oxide synthase 1; in data set [2]; against Substance-K receptor (cho); against Cytochrome P450 2D6; in data set [1] (bti-tn-5b1-4); on Adenosine receptor A2a (hek293)) was “Not Active” throughout. At Cytochrome P450 2D6, the Ki entry was “Not Active”.
For the compound `COc1cc2c(c3oc(=O)c4c(c13)CCC4=O)[C@@H]1C=CO[C@@H]1O2` [AFLATOXIN], the IC50 entry (on Nitric oxide synthase 1; in data set [2]; against Substance-K receptor (cho); against Cytochrome P450 2D6; in data set [1] (bti-tn-5b1-4); at Adenosine receptor A2a (hek293)) was “Not Active” each time. The Ki result (at Nitric oxide synthase 1; in data set [2]; at Substance-K receptor (cho); on Cytochrome P450 2D6; in data set [1] (bti-tn-5b1-4); at Adenosine receptor A2a (hek293)) was “Not Active” in each case.
Turning to `N=C(N)NC(=O)c1nc(Cl)c(N)nc1N` [AMILORIDE], the IC50 result is “Not Active” against Nitric oxide synthase 1; “Not Active” in data set [2]; “Not Active” at Substance-K receptor (cho); “Not Active” on Cytochrome P450 2D6; 3910 nM in data set [1] (read-out: IC50); “Not Active” at Adenosine receptor A2a (hek293). Further, the Ki result at Cytochrome P450 2D6 is reported as “Not Active”.
Take `CCCCN1CCCCC1C(=O)Nc1c(C)cccc1C.Cl` (stereo unspecified) [BUPIVACAINE HYDROCHLORIDE]: the IC50 entry (against Nitric oxide synthase 1; in data set [2]; against Substance-K receptor (cho); in data set [1] (bti-tn-5b1-4); on Adenosine receptor A2a (hek293)) was “Not Active” throughout.
As for `O=NN(CCCl)C(=O)NCCCl` [CARMUSTINE], the IC50 result (at Nitric oxide synthase 1; in data set [2]; against Substance-K receptor (cho); in data set [1] (bti-tn-5b1-4); on Adenosine receptor A2a (hek293)) was “Not Active” each time.
Consider `CC1=C(C(=O)O)N2C(=O)[C@@H](NC(=O)[C@H](N)c3ccccc3)[C@H]2SC1` [CEPHALEXIN ANHYDROUS], for which the concentration for half-maximal inhibition (IC50) entry (against Nitric oxide synthase 1; in data set [2]; against Substance-K receptor (cho); in data set [1] (bti-tn-5b1-4); on Adenosine receptor A2a (hek293)) was “Not Active” in each case.
With `O=C(N[C@H](CO)[C@H](O)c1ccc([N+](=O)[O-])cc1)C(Cl)Cl` [CHLORAMPHENICOL], the IC50 entry (against Nitric oxide synthase 1; in data set [2]; at Substance-K receptor (cho); in data set [1] (bti-tn-5b1-4); at Adenosine receptor A2a (hek293)) was “Not Active” each time.
For `CCOC(=O)C(C)(C)Oc1ccc(Cl)cc1` [CLOFIBRATE], the IC50 entry (at Nitric oxide synthase 1; in data set [2]; against Substance-K receptor (cho); in data set [1] (bti-tn-5b1-4); at Adenosine receptor A2a (hek293)) was “Not Active” each time.
As to `C[C@@H]1C[C@@H]([C@H](O)CC2CC(=O)NC(=O)C2)C(=O)[C@@H](C)C1` [CYCLOHEXIMIDE], the IC50 result (against Nitric oxide synthase 1; in data set [2]; on Substance-K receptor (cho); in data set [1] (bti-tn-5b1-4); on Adenosine receptor A2a (hek293)) was “Not Active” each time.
In the case of `C/C=C/C[C@@H](C)[C@@H](O)[C@H]1C(=O)N[C@@H](CC)C(=O)N(C)CC(=O)N(C)[C@@H](CC(C)C)C(=O)N[C@@H](C(C)C)C(=O)N(C)[C@@H](CC(C)C)C(=O)N[C@@H](C)C(=O)N[C@H](C)C(=O)N(C)[C@@H](CC(C)C)C(=O)N(C)[C@@H](CC(C)C)C(=O)N(C)[C@@H](C(C)C)C(=O)N1C` [CYCLOSPORINE], the IC50 result (at Nitric oxide synthase 1; in data set [2]; in data set [1] (bti-tn-5b1-4); at Adenosine receptor A2a (hek293)) was “Not Active” each time.
`CCN1CC(CCN2CCOCC2)C(c2ccccc2)(c2ccccc2)C1=O` (stereo unspecified) [DOXAPRAM]: the IC50 result (against Nitric oxide synthase 1; in data set [2]; against Substance-K receptor (cho); in data set [1] (bti-tn-5b1-4); at Adenosine receptor A2a (hek293)) was “Not Active” throughout.
Take `CN(C)c1ccc(C(=C2C=CC(=[N+](C)C)C=C2)c2ccc(N(C)C)cc2)cc1.[Cl-]` [GENTIAN VIOLET]: the half-inhibitory concentration (IC50) result against Nitric oxide synthase 1 is “Not Active”; in data set [2] it was “Not Active”; at Substance-K receptor (read-out: IC50), 1680 nM; in data set [1] (bti-tn-5b1-4), “Not Active”; at Adenosine receptor A2a (read-out: IC50) it was 3370 nM. Besides, the Ki is 560 nM on Substance-K receptor (read-out: Ki) and 1890 nM at Adenosine receptor A2a (read-out: Ki).
In the case of `NC(=O)NO` [HYDROXYUREA], the 50% inhibitory concentration (IC50) result (against Nitric oxide synthase 1; in data set [2]; against Substance-K receptor (cho); in data set [1] (bti-tn-5b1-4); at Adenosine receptor A2a (hek293)) was “Not Active” throughout.
On to `COc1ccc2cc([C@H](C)C(=O)O)ccc2c1` [NAPROXEN], for which the IC50 entry (against Nitric oxide synthase 1; in data set [2]; on Substance-K receptor (cho); in data set [1] (bti-tn-5b1-4); on Adenosine receptor A2a (hek293)) was “Not Active” each time.
On to `COC(=O)C1=C(C)NC(C)=C(C(=O)OCC(C)C)C1c1ccccc1[N+](=O)[O-]` (stereo unspecified) [NISOLDIPINE], for which the IC50 result against Nitric oxide synthase 1 was “Not Active”; in data set [2], “Not Active”; against Substance-K receptor (cho), “Not Active”; in data set [1] (bti-tn-5b1-4) it was “Not Active”; at Adenosine receptor A2a (read-out: IC50) it was 4060 nM. In addition, at Adenosine receptor A2a (read-out: Ki), the Ki came out at 2280 nM.
In the case of `CCn1cc(C(=O)O)c(=O)c2cc(F)c(N3CCN(C)CC3)cc21` [PEFLOXACIN], the IC50 result (against Nitric oxide synthase 1; in data set [2]; on Substance-K receptor (cho); in data set [1] (bti-tn-5b1-4); at Adenosine receptor A2a (hek293)) was “Not Active” in each case.
With `OC(CCN1CCCCC1)(c1ccccc1)C1CCCCC1` (stereo unspecified) [TRIHEXYPHENIDYL], the half-maximal inhibitory concentration (IC50) result (on Nitric oxide synthase 1; in data set [2]; on Substance-K receptor (cho); in data set [1] (bti-tn-5b1-4); at Adenosine receptor A2a (hek293)) was “Not Active” each time.

Usually IC50 stands for the concentration at which inhibition is half-maximal. As a reminder, the Ki is the equilibrium dissociation constant of an inhibitor or competing ligand from its target.
